Publication PMC10008561 (Nature Communications, 2023)
Several values for one entry are separate records, joined by “and”; a condition that tells them apart may be missing. Equal values may be shown once. Read-outs that look alike come from different tables or passages of the source.

What was measured:
[1] = biological target: T1, human KOR (Homo sapiens, UniProt P41145, F114L); test: cell-based; conditions: HEK-293T
T1 construct: expressed in transfected cells; host or cells: HEK 293T (ATCC, CRL-3216)

[2] = biological target: T2, human KOR (Homo sapiens, UniProt P41145, S324C); test: cell-based; conditions: HEK-293T
T2 construct: expressed in transfected cells; host or cells: HEK 293T (ATCC, CRL-3216)

[3] = biological target: T3, human KOR (Homo sapiens, UniProt P41145, Q115N); test: cell-based; conditions: HEK-293T
T3 construct: expressed in transfected cells; host or cells: HEK 293T (ATCC, CRL-3216)

[4] = biological target: T4, human KOR (Homo sapiens, UniProt P41145, E209A); test: cell-based; conditions: HEK-293T
T4 construct: expressed in transfected cells; host or cells: HEK 293T (ATCC, CRL-3216)

[5] = biological target: T5, human KOR (Homo sapiens, UniProt P41145, W287A); test: cell-based; conditions: HEK-293T
T5 construct: expressed in transfected cells; host or cells: HEK 293T (ATCC, CRL-3216)

[6] = biological target: T6, human KOR (Homo sapiens, UniProt P41145, K227A); test: cell-based; conditions: HEK-293T
T6 construct: expressed in transfected cells; host or cells: HEK 293T (ATCC, CRL-3216)

[7] = biological target: T7, human KOR (Homo sapiens, UniProt P41145, W124L); test: cell-based; conditions: HEK-293T
T7 construct: expressed in transfected cells; host or cells: HEK 293T (ATCC, CRL-3216)

[8] = test system: KOR; conditions: ERK activation versus p38 activation; cited from earlier work
[9] = test system: KOR; type: cell-based, human
[10] = biological target: KOR Q115N (Homo sapiens, UniProt P41145, Q115N); test: cell-based; design: expressed in transfected cells; host or cells: HEK 293T (ATCC, CRL-3216); conditions: read-out: cAMP response (Figure S4C), KOR Q115N, Log [Drug], replicate values
[11] = test system: KOR; design: method as in Cao et al., ACS Chem Neuro 2020; conditions: ref Cao et al., ACS Chem Neuro 2020; cited from earlier work

Chain of KOR Q115N (P41145 whole entry Q115N): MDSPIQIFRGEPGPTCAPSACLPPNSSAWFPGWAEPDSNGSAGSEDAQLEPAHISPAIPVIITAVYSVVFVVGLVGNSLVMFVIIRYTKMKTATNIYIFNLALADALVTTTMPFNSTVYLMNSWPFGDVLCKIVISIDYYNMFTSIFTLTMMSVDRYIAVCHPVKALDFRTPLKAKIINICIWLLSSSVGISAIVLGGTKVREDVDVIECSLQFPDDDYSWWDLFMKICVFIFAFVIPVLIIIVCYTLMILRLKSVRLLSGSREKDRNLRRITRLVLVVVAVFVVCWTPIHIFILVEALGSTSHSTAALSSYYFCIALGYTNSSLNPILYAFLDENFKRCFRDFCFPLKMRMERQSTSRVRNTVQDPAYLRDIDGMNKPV
T1 sequence (P41145 whole entry F114L): as the sequence (P41145 whole entry Q115N) above, with F114L, N115Q counted along it
T7 sequence (P41145 whole entry W124L): as the sequence (P41145 whole entry Q115N) above, with N115Q, W124L counted along it
T4 sequence (P41145 whole entry E209A): as the sequence (P41145 whole entry Q115N) above, with N115Q, E209A counted along it
T3 sequence (P41145 whole entry Q115N): as the sequence (P41145 whole entry Q115N) above
T6 sequence (P41145 whole entry K227A): as the sequence (P41145 whole entry Q115N) above, with N115Q, K227A counted along it
T5 sequence (P41145 whole entry W287A): as the sequence (P41145 whole entry Q115N) above, with N115Q, W287A counted along it
T2 sequence (P41145 whole entry S324C): as the sequence (P41145 whole entry Q115N) above, with N115Q, S324C counted along it

Work on `CN(C(=O)/C=C/c1ccoc1)[C@@H]1CC[C@@]2(O)[C@H]3Cc4ccc(O)c5c4[C@@]2(CCN3CC2CC2)[C@H]1O5` [Nalfurafine, nalfurafine] yielded an Emax [1] of 97 ± 4%, an activation at 3.162 pM ([1]; read-out: cAMP response) of 9.34% and an activation at 31.62 pM ([1]; read-out: cAMP response) of 29.6%. For the same compound, the activation at 0.0001 µM ([1]; read-out: cAMP response) was 36.4%, the activation at 0.001 µM ([1]; read-out: cAMP response) was 68% and the activation at 0.01 µM ([1]; read-out: cAMP response) was 90.9%. For the same compound, the activation at 0.1 µM ([1]; read-out: cAMP response) was 99.9%, the activation at 1 µM ([1]; read-out: cAMP response) was 97.6% and the activation at […] ([1]; read-out: cAMP response) was 66.6% and 88.8% and 97.4% and 103%. The Emax [2] was 99 ± 2%, the Emax [3] was 98 ± 3% and the Emax [4] was 100 ± 2%. The activation at 1 pM ([4]; read-out: cAMP response) was 28.4%, the activation at 3.162 pM ([4]; read-out: cAMP response) was 77.1% and the activation at 10 pM ([4]; read-out: cAMP response) was 90.6%. The activation at 31.62 pM ([4]; read-out: cAMP response) was 94.9%, the activation at 0.0001 µM ([4]; read-out: cAMP response) was 99.2% and the activation at 0.001 µM ([4]; read-out: cAMP response) was 99.5%. It also gave an activation at 0.01 µM ([4]; read-out: cAMP response) of 101%, an activation at 0.1 µM ([4]; read-out: cAMP response) of 100% and an activation at 1 µM ([4]; read-out: cAMP response) of 98.2%. For the same compound, the activation at […] ([4]; read-out: cAMP response) was 96.6% and 99.9% and 99.6% and 98.7%, the Emax [5] was 98 ± 4% and the Emax [6] was 100 ± 3%. The Emax [7] was 98 ± 3%, the activation at 10 pM ([7]; read-out: cAMP response) was 17.5% and the activation at 0.0001 µM ([7]; read-out: cAMP response) was 29.6%. For the same compound, the activation at 0.001 µM ([7]; read-out: cAMP response) was 65.5%, the activation at 0.01 µM ([7]; read-out: cAMP response) was 88.1% and the activation at 0.1 µM ([7]; read-out: cAMP response) was 106%. For the same compound, the activation at 1 µM ([7]; read-out: cAMP response) was 99.8%, the activation at […] ([7]; read-out: cAMP response) was 45.8% and 75.2% and 98.3% and 97.1% and the “bias factor toward G protein signaling” value [8] was 200. For the same compound, the “ΔΔLog τ/KA (95% confidence interval)” value [9] was 0.78 (0.65 to 0.91), the activation at 1 µM ([10]; M -6) was 99.3% and the activation at […] ([10]; M -6.5) was 94.1%. The activation at 0.1 µM ([10]; M -7) was 101%, the activation at […] ([10]; M -7.5) was 96.7% and the activation at 0.01 µM ([10]; M -8) was 100%. For the same compound, the activation at […] ([10]; M -8.5) was 91.3%, the activation at 0.001 µM ([10]; M -9) was 89.3% and the activation at […] ([10]; M -9.5) was 82.2%. The activation at 0.0001 µM ([10]; M -10) was 67.6%, the activation at 10 pM ([10]; M -11) was 7.51% and the “bias factor toward G protein signaling” value [11] was 4.5.
